# From patent US4017639A, “2-Hydroxy-3-nitro-1,4-naphthoquinones for the prophylaxis of certain allergies” (Beecham Group Limited, priority 1974, dated 1977)
# System: PCA response
# Assay: rat Passive Cutaneous Anaphylaxis Test (PCA test)
# Assay type: in vivo, rat (male Wistar)
# Conditions: sc, 10 min, dose 0.5 mg/Kg, time 10 mins before challenge, subcutaneous, as sodium salt
# Method: All of the compounds of the formula (I) prepared in the preceding examples were tested in the rat Passive Cutaneous Anaphylaxis Test (PCA test) described below. They were administered as their sodium salts either in pH 7.2 phosphate buffer (for soluble salts) or as a suspension in 1% methyl cellulose (for insoluble salts).
# Male Wistar rats of 250-300 g were injected intraperitoneally with 0.5 ml. of Bordatella pertussis vaccine (containing 4 × 10^10 dead organism per ml) and subcutaneously with 0.5 ml. of an emulsion of 100 mg of ovalbumin in 2 ml. of saline and 3 ml. of incomplete Freunds' adjuvant. Rats were bled by cardiac puncture on day 18, the blood was pooled and separated and serum stored at -20° and thawed only once before use.
# 0.1 ml. of each of six twofold serial dilutions of the serum in 0.9% saline were injected intradermally into separate sites on the shaved dorsal surface of 250-350 g. Male Wister rats. 72 hours later the animals were challenged by i.v. injection of 0.3 ml. of 1% ovalbumin mixed with 0.1 ml. of a 5% solution of pontamine sky blue dye both in isotonic saline buffered with pH 7.2 Sorenson buffer (P.B.S.). The rats were killed after 20 minutes and the diameter of the blue wheals at the antibody injection sites were measured. The starting dilution of the serum was adjusted so that there was no response, after challenge, at the site of injection of the highest dilution and a maximum response at the two or three lowest dilutions.
# Amounts of the compounds were administered to rats by subcutaneous injection, into the nucal region, of a solution of the compound in P.B.S. or as a suspension in 1% methyl cellulose, each amount to a test group of six animals at a specified time prior to intravenous challenge with ovalbumin.
# For those compounds having insoluble sodium salts, the salts were isolated by reaction of the free nitro compound with 2.5N sodium hydroxide and the filtered sodium salt washed free of alkali with water. The dried salts were then administered as a suspension in 1% methyl cellulose.
row,Compound,inhibition in vivo at 0.5 mg/kg [%]
1,"Cc1cccc2c1C(=O)C(O)=C([N+](=O)[O-])C2=O [Example 4, 3-Hydroxy-5-methyl-2-nitro-1,4-naphthoquinone]",6

# Same assay, conditions: sc, 10 min, dose 1 mg/Kg, time 10 mins before challenge, subcutaneous, as sodium salt
row,Compound,inhibition in vivo at 1 mg/kg [%]
1,"Cc1cccc2c1C(=O)C(O)=C([N+](=O)[O-])C2=O [Example 4, 3-Hydroxy-5-methyl-2-nitro-1,4-naphthoquinone]",16
2,"CCc1cc2c(cc1CC)C(=O)C([N+](=O)[O-])=C(O)C2=O [Example 12, 6,7-Diethyl-2-hydroxy-3-nitro-1,4-naphthoquinone]",11

# Same assay, conditions: sc, 10 min, dose 2 mg/Kg, time 10 mins before challenge, subcutaneous, as sodium salt
row,Compound,inhibition in vivo at 2 mg/kg [%]
1,"Cc1cccc2c1C(=O)C(O)=C([N+](=O)[O-])C2=O [Example 4, 3-Hydroxy-5-methyl-2-nitro-1,4-naphthoquinone]",16
2,"CCc1cc2c(cc1CC)C(=O)C([N+](=O)[O-])=C(O)C2=O [Example 12, 6,7-Diethyl-2-hydroxy-3-nitro-1,4-naphthoquinone]",23

# Same assay, conditions: sc, 10 min, dose 4 mg/Kg, time 10 mins before challenge, subcutaneous, as sodium salt
row,Compound,inhibition in vivo at 4 mg/kg [%]
1,"Cc1cccc2c1C(=O)C(O)=C([N+](=O)[O-])C2=O [Example 4, 3-Hydroxy-5-methyl-2-nitro-1,4-naphthoquinone]",29
2,"CCc1cc2c(cc1CC)C(=O)C([N+](=O)[O-])=C(O)C2=O [Example 12, 6,7-Diethyl-2-hydroxy-3-nitro-1,4-naphthoquinone]",26

# Same assay, conditions: sc, 10 min, dose 5 mg/Kg, time 10 mins before challenge, subcutaneous, as sodium salt
row,Compound,inhibition in vivo at 5 mg/kg [%]
1,"COc1ccc2c(c1)C(=O)C(O)=C([N+](=O)[O-])C2=O [Example 5, 3-Hydroxy-6-methoxy-2-nitro-1,4-naphthoquinone]",22
2,"Cc1ccc2c(c1)C(=O)C(O)=C([N+](=O)[O-])C2=O [Example 6, 3-Hydroxy-6-methyl-2-nitro-1,4-naphthoquinone]",19
3,"CCOc1ccc2c(c1)C(=O)C(O)=C([N+](=O)[O-])C2=O [Example 8, 6-Ethoxy-3-hydroxy-2-nitro-1,4-naphthoquinone]",25
4,"COc1cc2c(cc1OC)C(=O)C([N+](=O)[O-])=C(O)C2=O [Example 9, 6.7-Dimethoxy-2-hydroxy-3-nitro-1,4-naphthoquinone]",28
5,"O=C1C(O)=C([N+](=O)[O-])C(=O)c2cc3c(cc21)CCCC3 [Example 13, 2-Hydroxy-3-nitro-6,7-tetramethylene-1,4-naphtoquinone]",72

# Same assay, conditions: sc, 10 min, dose 8 mg/Kg, time 10 mins before challenge, subcutaneous, as sodium salt
row,Compound,inhibition in vivo at 8 mg/kg [%]
1,"CCc1cc2c(cc1CC)C(=O)C([N+](=O)[O-])=C(O)C2=O [Example 12, 6,7-Diethyl-2-hydroxy-3-nitro-1,4-naphthoquinone]",55

# Same assay, conditions: sc, 10 min, dose 10 mg/Kg, time 10 mins before challenge, subcutaneous, as sodium salt
row,Compound,inhibition in vivo at 10 mg/kg [%]
1,"COc1ccc2c(c1)C(=O)C(O)=C([N+](=O)[O-])C2=O [Example 5, 3-Hydroxy-6-methoxy-2-nitro-1,4-naphthoquinone]",41
2,"Cc1ccc2c(c1)C(=O)C(O)=C([N+](=O)[O-])C2=O [Example 6, 3-Hydroxy-6-methyl-2-nitro-1,4-naphthoquinone]",36
3,"CCOc1ccc2c(c1)C(=O)C(O)=C([N+](=O)[O-])C2=O [Example 8, 6-Ethoxy-3-hydroxy-2-nitro-1,4-naphthoquinone]",28
4,"COc1cc2c(cc1OC)C(=O)C([N+](=O)[O-])=C(O)C2=O [Example 9, 6.7-Dimethoxy-2-hydroxy-3-nitro-1,4-naphthoquinone]",39
5,"O=C1C(O)=C([N+](=O)[O-])C(=O)c2cc3c(cc21)CCCC3 [Example 13, 2-Hydroxy-3-nitro-6,7-tetramethylene-1,4-naphtoquinone]",80
6,"O=C1C(O)=C([N+](=O)[O-])C(=O)c2ccc(-c3ccccc3)cc21 [Example 14, 2-Hydroxy-3-nitro-7-phenyl-1,4-naphthoquinone]",20

# Same assay, conditions: sc, 10 min, dose 20 mg/Kg, time 10 mins before challenge, subcutaneous, as sodium salt
row,Compound,inhibition in vivo at 20 mg/kg [%]
1,"COc1ccc2c(c1)C(=O)C(O)=C([N+](=O)[O-])C2=O [Example 5, 3-Hydroxy-6-methoxy-2-nitro-1,4-naphthoquinone]",65
2,"Cc1ccc2c(c1)C(=O)C(O)=C([N+](=O)[O-])C2=O [Example 6, 3-Hydroxy-6-methyl-2-nitro-1,4-naphthoquinone]",33
3,"CCOc1ccc2c(c1)C(=O)C(O)=C([N+](=O)[O-])C2=O [Example 8, 6-Ethoxy-3-hydroxy-2-nitro-1,4-naphthoquinone]",54
4,"COc1cc2c(cc1OC)C(=O)C([N+](=O)[O-])=C(O)C2=O [Example 9, 6.7-Dimethoxy-2-hydroxy-3-nitro-1,4-naphthoquinone]",75
5,"O=C1C(O)=C([N+](=O)[O-])C(=O)c2cc3c(cc21)CCCC3 [Example 13, 2-Hydroxy-3-nitro-6,7-tetramethylene-1,4-naphtoquinone]",87
6,"O=C1C(O)=C([N+](=O)[O-])C(=O)c2ccc(-c3ccccc3)cc21 [Example 14, 2-Hydroxy-3-nitro-7-phenyl-1,4-naphthoquinone]",12

# Same assay, conditions: sc, 10 min, dose 40 mg/Kg, time 10 mins before challenge, subcutaneous, as sodium salt
row,Compound,inhibition in vivo at 40 mg/kg [%]
1,"COc1ccc2c(c1)C(=O)C(O)=C([N+](=O)[O-])C2=O [Example 5, 3-Hydroxy-6-methoxy-2-nitro-1,4-naphthoquinone]",85
2,"Cc1ccc2c(c1)C(=O)C(O)=C([N+](=O)[O-])C2=O [Example 6, 3-Hydroxy-6-methyl-2-nitro-1,4-naphthoquinone]",52
3,"CCOc1ccc2c(c1)C(=O)C(O)=C([N+](=O)[O-])C2=O [Example 8, 6-Ethoxy-3-hydroxy-2-nitro-1,4-naphthoquinone]",79
4,"COc1cc2c(cc1OC)C(=O)C([N+](=O)[O-])=C(O)C2=O [Example 9, 6.7-Dimethoxy-2-hydroxy-3-nitro-1,4-naphthoquinone]",84
5,"O=C1C(O)=C([N+](=O)[O-])C(=O)c2cc3c(cc21)CCCC3 [Example 13, 2-Hydroxy-3-nitro-6,7-tetramethylene-1,4-naphtoquinone]",90
6,"O=C1C(O)=C([N+](=O)[O-])C(=O)c2ccc(-c3ccccc3)cc21 [Example 14, 2-Hydroxy-3-nitro-7-phenyl-1,4-naphthoquinone]",23

# Same assay, conditions: sc, 10 min, dose 80 mg/Kg, time 10 mins before challenge, subcutaneous, as sodium salt
row,Compound,inhibition in vivo at 80 mg/kg [%]
1,"O=C1C(O)=C([N+](=O)[O-])C(=O)c2ccc(-c3ccccc3)cc21 [Example 14, 2-Hydroxy-3-nitro-7-phenyl-1,4-naphthoquinone]",23

# Same assay, conditions: sc, 10 min, dose 100 mg/Kg, time 10 mins before challenge, subcutaneous, as sodium salt
row,Compound,inhibition in vivo at 100 mg/kg [%]
1,"O=C1C(O)=C([N+](=O)[O-])C(=O)c2ccc(Br)cc21 [Example 10, 6-Bromo-3-hydroxy-2-nitro-1.4-naphthoquinone]",5
2,"O=C1C(O)=C([N+](=O)[O-])C(=O)c2ccc(F)cc21 [Example 11, 6-Fluoro-3-hydroxy-2-nitro-1,4-naphthoquinone]",13

# Same assay, conditions: sc, 0.5 h, dose 25 mg/Kg, time 30 mins before challenge, subcutaneous, as sodium salt
row,Compound,inhibition in vivo at 25 mg/kg [%]
1,"O=C1C(O)=C([N+](=O)[O-])C(=O)c2ccccc21 [Example 1, 2-Hydroxy-3-nitro-1,4naphthoquinone]",16
2,"Cc1ccc2c(c1)C(=O)C([N+](=O)[O-])=C(O)C2=O [Example 2, 2-Hydroxy-6-methyl-3-nitro-1,4-naphthoquinone]",33
3,"O=C1C([N+](=O)[O-])=C(O)C(=O)c2c(O)cccc21 [Example 3, 3,5-Dihydroxy-2-nitro-1,4-naphthoquinone]",14
4,"Cc1cc2c(cc1C)C(=O)C([N+](=O)[O-])=C(O)C2=O [Example 7, 6,7-Dimethyl-2-hydroxy-3-nitro-1,4-naphthoquinone]",18

# Same assay, conditions: sc, 0.5 h, dose 72 mg/Kg, time 30 mins before challenge, subcutaneous, as sodium salt
row,Compound,inhibition in vivo at 72 mg/kg [%]
1,"O=C1C([N+](=O)[O-])=C(O)C(=O)c2c(O)cccc21 [Example 3, 3,5-Dihydroxy-2-nitro-1,4-naphthoquinone]",18

# Same assay, conditions: sc, 0.5 h, dose 100 mg/Kg, time 30 mins before challenge, subcutaneous, as sodium salt
row,Compound,inhibition in vivo at 100 mg/kg [%]
1,"O=C1C(O)=C([N+](=O)[O-])C(=O)c2ccccc21 [Example 1, 2-Hydroxy-3-nitro-1,4naphthoquinone]",30
2,"Cc1ccc2c(c1)C(=O)C([N+](=O)[O-])=C(O)C2=O [Example 2, 2-Hydroxy-6-methyl-3-nitro-1,4-naphthoquinone]",30
3,"Cc1cc2c(cc1C)C(=O)C([N+](=O)[O-])=C(O)C2=O [Example 7, 6,7-Dimethyl-2-hydroxy-3-nitro-1,4-naphthoquinone]",27
4,"O=C1C(O)=C([N+](=O)[O-])C(=O)c2ccc(Br)cc21 [Example 10, 6-Bromo-3-hydroxy-2-nitro-1.4-naphthoquinone]",13
5,"O=C1C(O)=C([N+](=O)[O-])C(=O)c2ccc(F)cc21 [Example 11, 6-Fluoro-3-hydroxy-2-nitro-1,4-naphthoquinone]",16
